“Also recorded” adds a separate entry of the source.

This is an account of results in US11607419B2, “Inhibitors of RAC1 and uses thereof for inducing bronchodilatation” (INSTITUT NATIONAL DE LA SANTE ET DE LA RECHERCHE MEDICALE …, priority 2017, dated 2023).

In series [1] the target is T1, RAC1 (Homo sapiens, UniProt P63000). The note with it: compared with NSC23766.
Series [2] addresses T1, RAC1.
Series [3] has as its target RhoA (Homo sapiens, UniProt P61586). The series can be described thus: Nucleotide exchange assay, RhoA. The series is classed as biochemical. More on the design: Full-length human small GTPases carrying a 6-histidine tag fused to their C-terminus; 6-histidine tag (C); made in house; host or cells: E. coli. The note with it: 10 μM. The source says: (§1) Nucleotide exchange assays. Full-length human small GTPases carrying a 6-histidine tag fused to their C-terminus were expressed in E. coli and purified to homogeneity. Small GTPases were loaded with GDP or N-methylanthraniloyl-GDP (GDP/mant-GDP, JenaBiosciences) before nucleotide exchange kinetics experiments.
(§2) Nucleotide exchange kinetics were monitored by fluorescence of the mant fluorophore (λexc=360 nm, λem=440 nm) or tryptophan fluorescence (for Arf6; λexc=280 nm, λem=[…]) using a Cary Eclipse fluorimeter (Varian, Toulouse, France) at 30° C. under stirring. All kinetics assays were carried out in a buffer containing 50 mM Tris at pH 8, 300 mM NaCl, 2 mM MgCl2, 1 mM DTT and were started by addition of 100 μM N-methylanthraniloy-GTP or GTP (mant-GTP/GTP, JenaBiosciences). Nucleotide exchange kinetics were carried out at a concentration of small GTPases of 1 μM, either without GEF for spontaneous exchange, in the presence of 50 nM GEF for single kobs (s-1) determination. The kobs was determined from single-exponential fit of the fluorescence change. All experiments were carried out at least in triplicate.

For series [4], the target named is T2, Rac-GTP (Rac1 activity) in NIH3T3 cells (Mus musculus, UniProt P63001).
T2 construct: endogenous in cells; host or cells: NIH3T3
The series can be described thus: Rac activation: active Rac immunoprecipitation and immunoblot of Rac-GTP in fibroblasts stimulated by a Rac activator. The class given is cell-based. Conditions: pre-incubated 1 h. The procedure:
(§3) Cell culture, transfection and actin staining. NIH3T3 cells grew up in DMEM (Gibco; Invitrogen) containing 10% foetal bovine serum, 100 units/mL penicillin and 100 μg/mL streptomycin at 37° C. and 5% CO2. The culture medium was changed every 72 hours.
Analysis of Rac1 activity. In NIH3T3 cells lysates, Rac1 activity was evaluated by active Rac immunoprecipitation using anti-Rac-GTP antibody (26903, NewEast Biosciences). The precipitated active Rac was subjected to SDS-PAGE and detected by immunoblot with anti-Rac1 antibody (BD biosciences).
(In general: A western blot detects proteins with antibodies after separation by electrophoresis.)

The target in series [5] is T1, RAC1. The series can be described thus: Nucleotide exchange assay (mant-GTP/mant-GDP), Rac1. The series is classed as biochemical. Details: Full-length human small GTPases carrying a 6-histidine tag fused to their C-terminus; 6-histidine tag (C); made in house; host or cells: E. coli. Conditions: 10 μM.
Excerpt: as §1, §2

Series [6] deals with T3, RhoG (Homo sapiens, UniProt P84095).
T3 construct: Full-length human small GTPases carrying a 6-histidine tag fused to their C-terminus; 6-histidine tag (C); made in house; host or cells: E. coli
T3 sequence (P84095 whole entry, the tested form may be a part): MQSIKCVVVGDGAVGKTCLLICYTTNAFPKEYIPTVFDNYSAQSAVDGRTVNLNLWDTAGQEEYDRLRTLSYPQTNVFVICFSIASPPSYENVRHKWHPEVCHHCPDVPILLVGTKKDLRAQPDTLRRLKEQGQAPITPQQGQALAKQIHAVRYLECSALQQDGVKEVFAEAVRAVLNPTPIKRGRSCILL
The series can be described thus: Nucleotide exchange assay, RhoG. The series is classed as biochemical. The note with it: 10 μM.
Excerpt: as §1, §2

Series [7] addresses T4, Rab35 (Homo sapiens, UniProt Q15286).
T4 construct: Full-length human small GTPases carrying a 6-histidine tag fused to their C-terminus; 6-histidine tag (C); made in house; host or cells: E. coli
The series can be described thus: Nucleotide exchange assay, Rab35. The series is classed as biochemical. Conditions: 10 μM.
Excerpt: as §1, §2

Series [8] relates to fibroblast adhesion. As to the kind of experiment: Cell adhesion assay using impedance technology. Conditions: fibroblasts; for adhesion rate of the cells: 10 μm. The series is classed as cell-based. On the procedure: Cell adhesion assay using impedance technology. Cells (10000/well) were seeded in a 96 well plate microtiter xCELLigence assay plate (E-Plate) (ACEA Biosciences Inc.) and placed on the Real-time xCELLigence Cell Analyzer (Roche Applied Science) platform at 37° C. to measure the “cell index” every 5 min for a period of 6 hours. The cell index unit is defined as (Rn−Rb)/15. Rn is the cell electrode impedance of the well when it contains cells. Rb is the background impedance of the well with the media alone.

Series [9] concerns the target T5, Arf6 (Homo sapiens, UniProt P62330).
T5 construct: Full-length human small GTPases carrying a 6-histidine tag fused to their C-terminus; 6-histidine tag (C); made in house; host or cells: E. coli
As to the kind of experiment: Nucleotide exchange assay, Arf6. The series is classed as biochemical. The note with it: 10 μM.
Excerpt: as §1, §2

For series [10], the system named is Rac1-dependent ruffle formation in NIH3T3 cells. The series can be described thus: Rac activator-induced membrane ruffling (actin staining) in fibroblasts. Conditions: for IC50: fibroblasts, dose-dependent inhibition. The series is classed as cell-based. On the procedure:
as §3
After treatments, fibroblasts were fixed with 4% paraformaldehyde in PBS, permeabilized in PBS 0.5% Triton X-100, and incubated with 130 μg/mL of FITC-conjugated phalloidin (Sigma) to visualize F-actin. After staining, images were captured by a fluorescence microscope (Nikon). The actin cytoskeleton organization was analyzed to observe Rac1-dependent ruffle formation.

Series [11] concerns murine bronchial rings (aSMC contraction). As to the kind of experiment: Airways reactivity ex vivo: methacholine contraction of bronchial rings. The note with it: bronchial rings from control mice, pre-incubated 1 h. The procedure: Airways reactivity ex vivo. Murine primary bronchi were cleaned, cut in rings and mounted on a multichannel isometric myograph in Krebs-Henseleit physiological solution (118.4 mM NaCl, 4.7 mM KCl, 2 mM CaCl2, 1.2 mM MgSO4, 1.2 mM KH2PO4, 25 mM NaHCO3 and 11 mM glucose) at 37° C. under oxygen. A pre-tension of 0.5 mN was applied. We constructed dose-response curves to methacholine (Sigma). When indicated, rings were pre-incubated 1 h before contraction with (2) (or compound A4.1). The wire myograph was connected to a digital data recorder (MacLab/4e, AD Instruments) and recordings were analyzed using LabChart v7 software (AD Instruments).

The target in series [12] is T6, Rac2 (Homo sapiens, UniProt P15153).
T6 construct: Full-length human small GTPases carrying a 6-histidine tag fused to their C-terminus; 6-histidine tag (C); made in house; host or cells: E. coli
The series can be described thus: Nucleotide exchange assay (mant-GTP/mant-GDP), Rac2. The series is classed as biochemical. The note with it: 10 μM.
Excerpt: as §1, §2

The subject of series [13] is 3T3 cells migration. The series can be described thus: Unidirectional cell migration. The class given is cell-based. On the procedure:
Unidirectional cell migration. Cells (1000/well) were seeded in a 96 well plate with […] fibronectin stripes (CytooPlates Motility, CYTOO) in medium with 1% SVF and allowed to spread for 4 hours before capturing time-lapse images for 24 hours (image/10 minutes) on a Widefield Leica DMI 6000B drove with Metamorph software. Cells speed was measured with ImageJ software.

Series [14] deals with airway hyperresponsiveness. As to the kind of experiment: Airway responsiveness in vivo (whole-body plethysmography, methacholine). Conditions: mouse model of allergic asthma, acute nebulization (300 μl at 5 mM) 10 min before methacholine. More on the design: species or system mice. The procedure: Animals use and airways responsiveness measurement in vivo. All experimental procedures and animal care were performed in accordance with the European Community Standards on the Care and Use of Laboratory Animals and approved by the local ethics committee (Comité d'Ethique en Expérimentation Animale des Pays de Loire). Airway responsiveness was assessed in conscious, unrestrained mice using a barometric, whole-body plethysmography (EMKA Technologies) by recording respiratory pressure curves in response to inhaled methacholine (Sigma) at concentrations of 0-40 mg/ml for 1 min. Airway responsiveness was expressed in enhanced pause (Penh) units. The Penh values measured after stimulation were averaged and expressed as the fold-increase over baseline values. When required, the Rac inhibitor (2) was nebulised (300 μl at 5 mM) 10 min before methacholine challenge.

In series [15] the target is T1, RAC1. The series can be described thus: Surface plasmon resonance on immobilised Rac1. The series is classed as binding. On the procedure: Surface plasmon resonance studies. SPR immobilization was performed at 25° C. Rac1, RhoA and Cdc42 purified proteins were diluted to 5 μg/mL in Na^+ acetate buffer (pH 5.0) and injected into sensor chip CM5 (GE Healthcare) in a Biacore T200 (GE Healthcare) that was activated with NHS/EDC buffer. Approximately 5,000 response units of the purified protein were captured on the biosensor chip. Biosensor chips were blocked by an injection of […] ethanolamine (pH 8.5). […] SPR analysis was performed at 25° C. in HBSEP running buffer (5% DMSO). When indicated, EDTA (20 mM) was added in running buffer.

T5 sequence (P62330 whole entry, the tested form may be a part): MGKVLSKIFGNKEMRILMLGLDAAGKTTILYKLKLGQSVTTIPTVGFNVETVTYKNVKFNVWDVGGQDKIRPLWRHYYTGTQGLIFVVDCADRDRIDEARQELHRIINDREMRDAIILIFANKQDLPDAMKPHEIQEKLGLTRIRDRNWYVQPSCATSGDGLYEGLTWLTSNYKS
Chain of RhoA (P61586 whole entry, the tested form may be a part): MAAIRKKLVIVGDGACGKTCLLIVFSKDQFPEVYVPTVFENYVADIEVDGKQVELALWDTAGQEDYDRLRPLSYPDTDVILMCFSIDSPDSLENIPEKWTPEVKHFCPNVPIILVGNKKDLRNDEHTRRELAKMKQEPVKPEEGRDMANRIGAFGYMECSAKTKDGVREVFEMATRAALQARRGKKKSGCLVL
T4 sequence (Q15286 whole entry, the tested form may be a part): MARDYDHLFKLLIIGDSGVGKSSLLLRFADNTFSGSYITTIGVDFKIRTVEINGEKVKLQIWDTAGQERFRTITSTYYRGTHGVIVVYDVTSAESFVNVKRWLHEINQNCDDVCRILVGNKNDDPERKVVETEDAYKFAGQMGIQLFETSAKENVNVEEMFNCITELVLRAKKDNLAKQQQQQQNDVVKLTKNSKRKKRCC

In general, IC50 refers to the concentration that gives 50% inhibition. Higher therefore signals weaker potency in that assay. As for `COc1ccc(NS(=O)(=O)c2ccc(NC(=O)CCSc3ccc(C)cc3)cc2)c(OC)c1` [(1), N-(4-(N-(2,4-dimethoxyphenyl)sulfamoyl)phenyl)-3-(p-tolylthio)propanamide], the “Relative activity (NSC23766)” value in [1] is given as “>”. For the same molecule, in [2], it took 30 nM to reach half-maximal inhibition (IC50).
Broadly, the melting point is the temperature of the solid-liquid transition. Turning to `C=CC(=O)Nc1ccc(S(=O)(=O)Nc2cc(OC)ccc2OC)cc1` [(5), N-(4-(N-(2,5-dimethoxyphenyl)sulfamoyl)phenyl)acrylamide], the melting point came to 126 °C. Moreover, in series [1], the “Relative activity (NSC23766)” value was “>”. 0.1 nM corresponded to half-maximal inhibition in series [2] (IC50).
The corresponding values for `COc1ccc(OC)c(NS(=O)(=O)c2ccc(NC(=O)CCOc3ccc(C)cc3)cc2)c1` [(6), N-(4-(N-(2,5-dimethoxyphenyl)sulfamoyl)phenyl)-3-(p-tolyloxy)propanamide] are 145 °C, “>” and 1 nM.
The like results for `COc1ccccc1NS(=O)(=O)c1ccc([N+](=O)[O-])cc1` [(17), N-(2-methoxyphenyl)-4-nitrobenzenesulfonamide] were, in that order, 156.5 °C, “>” and 1 nM.
As for `COc1ccccc1NS(=O)(=O)c1ccc(N)cc1` [(18), 4-amino-N-(2-methoxyphenyl)-benzenesulfonamide], the “Relative activity (NSC23766)” value in series [1] is “>”. Further, the IC50 in series [2] was found to be 1 nM.
Molecule `COc1ccccc1NS(=O)(=O)c1ccc(NC(=O)CCSc2ccc(C)cc2)cc1` [(19), N-(4-(N-(2-methoxyphenyl)sulfamoyl)phenyl)-3-(p-tolylthio) propanamide] displayed a melting point of 143.5 °C. In series [1], the “Relative activity (NSC23766)” value is reported as “>”. This molecule also gave an IC50 in series [2] of 1 nM.
`COc1ccccc1NS(=O)(=O)c1ccc(NC(=O)CSc2ccc(C)cc2)cc1` [(20), N-(4-(N-(2-methoxyphenyl)sulfamoyl)phenyl)-2-(p-tolylthio) acetamide] registered a melting point of 169.3 °C. Also, the “Relative activity (NSC23766)” value in series [1] is recorded as “>”. Also, the IC50 in [2] came to 1 nM.
On to `COc1cccc(NS(=O)(=O)c2ccc(N)cc2)c1` [(22)], for which, in [1], the “Relative activity (NSC23766)” value was “>”. Half-maximal inhibition in series [2] (IC50) required 1 nM.
In turn, `COc1ccc(OC)c(NS(=O)(=O)c2ccc(NC(=O)CCSc3ccc(C)cc3)cc2)c1` [Compound (2), N-(4-(N-(2,5-dimethoxyphenyl)sulfamoyl)phenyl)-3-(p-tolylthio)propanamide] showed a melting point of 136 °C. Further, the “nucleotide exchange kinetics of RhoA” value in series [3] is listed as “did not alter”. In [1], the “Relative activity (NSC23766)” value is reported as “>”. This molecule displayed an IC50 in [2] of 1 nM. In series [4], the “Rac activation (Rac-GTP level) by a Rac activator” value was “prevented”. Moreover, in series [5], the “Bmax GTP-binding on Rac1” value is given as “decreased”. Besides, the “nucleotide exchange kinetics of RhoG” value in series [6] is “did not alter”. In [7], the “nucleotide exchange kinetics of Rab35” value is on record as “did not alter”. In series [8], the “adhesion inhibition compared with NSC23766” value is listed as “higher inhibition” and the “adhesion rate of the cells” value is recorded as “decreases; also recorded: slow down”. In addition, the “nucleotide exchange kinetics of Arf6” value in [9] is “did not alter”. This molecule came in with an IC50 in [10] (Mus musculus, NIH3T3) of 0.67 nM. In addition, the “efficiency of Rac activator to induce ruffle” value in series [10] (added 1 h before Rac activation) is “blocks; also recorded: strongly decreased”. In addition, in series [11], the “maximal contraction induced by methacholine” value is reported as “dose-dependent reduced”. Further, the “Bmax GTP-binding on Rac2” value in [12] is on record as “decreased”. In addition, in series [13], the “migration inhibition compared with NSC23766” value is given as “higher inhibition” and the “migration rate of the cells” value is on record as “decreases; also recorded: slow down”. Moreover, the “airway hyperresponsiveness (AHR)” value in series [14] was “prevented”. For the same molecule, in [15] (0.78-25 μM injected), the “SPR binding to Rac1” value is reported as “binds Rac1”. Moreover, the “SPR interaction with Rac1 nucleotide free” value in series [15] (EDTA in running buffer) is given as “significantly increased”.
For `COc1ccc(NS(=O)(=O)c2ccc(N)cc2)c(OC)c1` [Example 6, 4-amino-N-(2,4-dimethoxyphenyl)benzenesulfonamide], the melting point is 115 °C.
Same read-out and setting: for `Nc1ccc(S(=O)(=O)Nc2ccccc2F)cc1` [Example 10] the value was 190 °C.
`CCN(CC)CCCC(C)Nc1nc(C)cc(Nc2ccc3nc(C)cc(N)c3c2)n1` (stereo not shown) [NSC23766, reference compound]: the “Rac activation (Rac-GTP level) by a Rac activator” value in series [4] is “prevented”. In addition, the “adhesion rate of the cells” value in [8] was “slow down”. In addition, the half-inhibitory concentration (IC50) in [10] is 2600 nM.
